Reference: PubChem BioAssay (NCI)
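Tested at 5 concentrations; 48 h exposure; 96-well plates; endpoints linearly interpolated, else capped at highest concentration. GI50 is the concentration that inhibits growth by half. TGI: concentration producing complete growth inhibition.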

Key:
Assay in all cases: NCI tumour cell line growth inhibition, 48 h
NCI-H23 lung = system: NCI-H23 lung
NCI-H460 lung = system: NCI-H460 lung
NCI-H522 lung = system: NCI-H522 lung
NCI/ADR-RES ovarian = system: NCI/ADR-RES ovarian
OVCAR-3 ovarian = system: OVCAR-3 ovarian
OVCAR-4 ovarian = system: OVCAR-4 ovarian
OVCAR-5 ovarian = system: OVCAR-5 ovarian
OVCAR-8 ovarian = system: OVCAR-8 ovarian
PC-3 prostate = system: PC-3 prostate
RPMI-8226 leukemia = system: RPMI-8226 leukemia
RXF 393 renal = system: RXF 393 renal
SF-268 CNS = system: SF-268 CNS
SF-295 CNS = system: SF-295 CNS
SF-539 CNS = system: SF-539 CNS
SK-MEL-2 melanoma = system: SK-MEL-2 melanoma
SK-MEL-28 melanoma = system: SK-MEL-28 melanoma
SK-MEL-5 melanoma = system: SK-MEL-5 melanoma
SK-OV-3 ovarian = system: SK-OV-3 ovarian
SN12C renal = system: SN12C renal
SNB-19 CNS = system: SNB-19 CNS
SNB-75 CNS = system: SNB-75 CNS
SR leukemia = system: SR leukemia
SW-620 colon = system: SW-620 colon
T-47D breast = system: T-47D breast
TK-10 renal = system: TK-10 renal
U251 CNS = system: U251 CNS
UACC-257 melanoma = system: UACC-257 melanoma
UACC-62 melanoma = system: UACC-62 melanoma
UO-31 renal = system: UO-31 renal

Oc1ccccc1N=Cc1c(O)ccc2ccccc12
GI50 (NCI-H23 lung): 13.8 µM | TGI (NCI-H23 lung): 49.8 µM | GI50 (NCI-H460 lung): 10.7 µM | TGI (NCI-H460 lung): 47 µM | GI50 (NCI-H522 lung): 6.73 µM | TGI (NCI-H522 lung): 39.3 µM | GI50 (NCI/ADR-RES ovarian): 5.58 µM | TGI (NCI/ADR-RES ovarian): 40.8 µM | GI50 (OVCAR-3 ovarian): 11.9 µM | TGI (OVCAR-3 ovarian): 46.1 µM | GI50 (OVCAR-4 ovarian): 13.4 µM | TGI (OVCAR-4 ovarian): 75.4 µM | GI50 (OVCAR-5 ovarian): 24.6 µM | TGI (OVCAR-5 ovarian): 62.9 µM | GI50 (OVCAR-8 ovarian): 18.1 µM | TGI (OVCAR-8 ovarian): 72 µM | GI50 (PC-3 prostate): 7.28 µM | TGI (PC-3 prostate): 66.2 µM | GI50 (RPMI-8226 leukemia): 2.77 µM | TGI (RPMI-8226 leukemia): 37 µM | GI50 (RXF 393 renal): 10.6 µM | TGI (RXF 393 renal): 34.6 µM | GI50 (SF-268 CNS): 15.8 µM | TGI (SF-268 CNS): 76.8 µM | GI50 (SF-295 CNS): 11.7 µM | TGI (SF-295 CNS): 40.4 µM | GI50 (SF-539 CNS): 14.2 µM | TGI (SF-539 CNS): 39 µM | GI50 (SK-MEL-2 melanoma): 13.3 µM | TGI (SK-MEL-2 melanoma): 40.5 µM | GI50 (SK-MEL-28 melanoma): 22.4 µM | TGI (SK-MEL-28 melanoma): 84.5 µM | GI50 (SK-MEL-5 melanoma): 9.99 µM | TGI (SK-MEL-5 melanoma): 34.7 µM | GI50 (SK-OV-3 ovarian): 15.9 µM | TGI (SK-OV-3 ovarian): 54.7 µM | GI50 (SN12C renal): 15.4 µM | TGI (SN12C renal): 71.9 µM | GI50 (SNB-19 CNS): 21.8 µM | TGI (SNB-19 CNS): > 100 µM | GI50 (SNB-75 CNS): 10.4 µM | TGI (SNB-75 CNS): 62.5 µM | GI50 (SR leukemia): 15.3 µM | TGI (SR leukemia): 47.7 µM | GI50 (SW-620 colon): 17.3 µM | TGI (SW-620 colon): > 100 µM | GI50 (T-47D breast): 7.5 µM | TGI (T-47D breast): 54.9 µM | GI50 (TK-10 renal): 14.2 µM | TGI (TK-10 renal): 66.2 µM | GI50 (U251 CNS): 19.8 µM | TGI (U251 CNS): 67.9 µM | GI50 (UACC-257 melanoma): 15.2 µM | TGI (UACC-257 melanoma): 56.6 µM | GI50 (UACC-62 melanoma): 9.78 µM | TGI (UACC-62 melanoma): 38.5 µM | GI50 (UO-31 renal): 3.59 µM | TGI (UO-31 renal): 28.3 µM
